Measured values taken from PubChem BioAssay AID256 (DTP/NCI, 2004).
Inconclusive results and toxic doses are left out. The calls were made as follows: active = survival T/C of 150% or more; inactive = T/C below 125% in these data.

Test system: CD2F1 mice, L1210 leukemia ip, survival T/C
Experiment: NCI In Vivo Anticancer Drug Screen. Data for tumor model L1210 Leukemia (intraperitoneal) in CD2F1 (CDF1) mice
Details: higher = longer survival
How it was run: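 Compound-dosed mice with transplantable tumor versus matched vehicle controls; endpoint ratio T/C reported.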

[1] = endpoint: mean survival time, dose: 12.5 mg/kg/injection, schedule: Q01DX009 (ip), vehicle: saline with Tween-80
[2] = endpoint: mean survival time, dose: 12.5 mg/kg/injection, schedule: Q04DX003 (ip), vehicle: saline with Tween-80
[3] = endpoint: mean survival time, dose: 25.0 mg/kg/injection, schedule: Q01DX009 (ip), vehicle: saline with Tween-80
[4] = endpoint: mean survival time, dose: 25.0 mg/kg/injection, schedule: Q04DX003 (ip), vehicle: saline with Tween-80
[5] = endpoint: mean survival time, dose: 50.0 mg/kg/injection, schedule: Q04DX002 (ip), vehicle: saline with Tween-80
[6] = endpoint: mean survival time, dose: 100.0 mg/kg/injection, schedule: Q04DX002 (ip), vehicle: saline with Tween-80
[7] = endpoint: mean survival time, dose: 100.0 mg/kg/injection, schedule: Q04DX003 (ip), vehicle: saline with Tween-80
[8] = endpoint: mean survival time, dose: 200.0 mg/kg/injection, schedule: Q04DX003 (ip), vehicle: saline with Tween-80
[9] = endpoint: mean survival time, dose: 100.0 mg/kg/injection, schedule: Q01DX009 (ip), vehicle: saline with Tween-80
[10] = endpoint: mean survival time, dose: 200.0 mg/kg/injection, schedule: Q01DX009 (ip), vehicle: saline with Tween-80
[11] = endpoint: mean survival time, dose: 400.0 mg/kg/injection, schedule: Q01DX009 (ip), vehicle: saline with Tween-80
[12] = endpoint: mean survival time, dose: 100.0 mg/kg/injection, schedule: Q01DX001 (ip), vehicle: saline with Tween-80
[13] = endpoint: mean survival time, dose: 200.0 mg/kg/injection, schedule: Q01DX001 (ip), vehicle: saline with Tween-80

Measured: T/C

CN(C)CC1CCCCCC(Br)C1O (stereo not drawn)
inactive: endpoint: mean survival time, dose: 75.0 mg/kg/injection, schedule: Q01DX001 (ip), vehicle: saline 100 % of control | endpoint: mean survival time, dose: 150.0 mg/kg/injection, schedule: Q01DX001 (ip), vehicle: saline 94 % of control

ON1C=CC2C=CC1c1ccccc12 (stereo not drawn)
inactive: endpoint: median survival time, dose: 50.0 mg/kg/injection, schedule: Q04DX002 (ip), vehicle: saline with Tween-80 100 % of control | endpoint: median survival time, dose: 100.0 mg/kg/injection, schedule: Q04DX002 (ip), vehicle: saline with Tween-80 88 % of control | endpoint: median survival time, dose: 200.0 mg/kg/injection, schedule: Q04DX002 (ip), vehicle: saline with Tween-80 88 % of control

[Cl][Pt][Cl].[NH-]C(CO)C(=O)O (stereo not drawn)
inactive: endpoint: mean survival time, dose: 3.13 mg/kg/injection, schedule: Q04DX003 (ip), vehicle: water 106 % of control | endpoint: mean survival time, dose: 6.25 mg/kg/injection, schedule: Q04DX003 (ip), vehicle: water 113 % of control | endpoint: mean survival time, dose: 12.5 mg/kg/injection, schedule: Q04DX003 (ip), vehicle: water 113 % of control | endpoint: mean survival time, dose: 25.0 mg/kg/injection, schedule: Q04DX003 (ip), vehicle: water 118 % of control | endpoint: mean survival time, dose: 50.0 mg/kg/injection, schedule: Q04DX003 (ip), vehicle: water 119 % of control | endpoint: mean survival time, dose: 100.0 mg/kg/injection, schedule: Q04DX003 (ip), vehicle: water 95 % of control | endpoint: median survival time, dose: 6.25 mg/kg/injection, schedule: Q01DX009 (ip), vehicle: water 117 % of control | endpoint: median survival time, dose: 12.5 mg/kg/injection, schedule: Q01DX009 (ip), vehicle: water 117 % of control | endpoint: median survival time, dose: 25.0 mg/kg/injection, schedule: Q01DX009 (ip), vehicle: water 124 % of control

CCc1ccc(OC(C)=O)cc1
inactive: endpoint: mean survival time, dose: 50.0 mg/kg/injection, schedule: Q01DX009 (ip), vehicle: Klucel (hydroxypropylcellulose) (HPC) 98 % of control | endpoint: mean survival time, dose: 100.0 mg/kg/injection, schedule: Q01DX009 (ip), vehicle: Klucel (hydroxypropylcellulose) (HPC) 98 % of control | endpoint: mean survival time, dose: 200.0 mg/kg/injection, schedule: Q01DX009 (ip), vehicle: Klucel (hydroxypropylcellulose) (HPC) 90 % of control

ClC1(Cl)Cc2ccccc21
inactive: endpoint: mean survival time, dose: 266.0 mg/kg/injection, schedule: Q04DX003 (ip), vehicle: saline sonified 96 % of control | endpoint: mean survival time, dose: 400.0 mg/kg/injection, schedule: Q04DX003 (ip), vehicle: saline sonified 88 % of control | endpoint: mean survival time, dose: 600.0 mg/kg/injection, schedule: Q04DX003 (ip), vehicle: saline sonified 100 % of control | endpoint: median survival time, dose: 50.0 mg/kg/injection, schedule: Q01DX005 (ip), vehicle: saline with Tween-80 102 % of control | endpoint: median survival time, dose: 100.0 mg/kg/injection, schedule: Q01DX005 (ip), vehicle: saline with Tween-80 113 % of control | endpoint: median survival time, dose: 200.0 mg/kg/injection, schedule: Q01DX005 (ip), vehicle: saline with Tween-80 102 % of control

O=C(CBr)c1cccc(OC(=O)c2ccccc2)c1
inactive: [1] 100 % of control | [2] 107 % of control | [3] 100 % of control | [4] 102 % of control | endpoint: mean survival time, dose: 50.0 mg/kg/injection, schedule: Q04DX003 (ip), vehicle: saline with Tween-80 113 % of control

CC1=C(C(N)=O)C(c2ccccc2)NC(=S)N1 (stereo not drawn)
inactive: endpoint: median survival time, dose: 25.0 mg/kg/injection, schedule: Q01DX009 (ip), vehicle: Klucel (hydroxypropylcellulose) (HPC) 101 % of control | endpoint: median survival time, dose: 50.0 mg/kg/injection, schedule: Q01DX009 (ip), vehicle: Klucel (hydroxypropylcellulose) (HPC) 105 % of control | endpoint: median survival time, dose: 100.0 mg/kg/injection, schedule: Q01DX009 (ip), vehicle: Klucel (hydroxypropylcellulose) (HPC) 102 % of control | endpoint: median survival time, dose: 200.0 mg/kg/injection, schedule: Q01DX009 (ip), vehicle: Klucel (hydroxypropylcellulose) (HPC) 112 % of control | endpoint: median survival time, dose: 400.0 mg/kg/injection, schedule: Q01DX009 (ip), vehicle: Klucel (hydroxypropylcellulose) (HPC) 103 % of control

CC(C)(CC/C(=N\Nc1ccc([N+](=O)[O-])cc1[N+](=O)[O-])c1ccccc1)C1OCCO1
inactive: [5] 90 % of control | [6] 98 % of control | endpoint: mean survival time, dose: 200.0 mg/kg/injection, schedule: Q04DX002 (ip), vehicle: saline with Tween-80 94 % of control

O=C(O)c1c2c(nc3ccccc13)-c1ccccc1C1(CCCC1)C2
inactive: [7] 92 % of control | [8] 99 % of control

COC(=O)Nc1cccc(OC(=O)NC(C)(C)CC(C)(C)C)c1
inactive: [3] 101 % of control | endpoint: mean survival time, dose: 50.0 mg/kg/injection, schedule: Q01DX009 (ip), vehicle: saline with Tween-80 101 % of control | [9] 97 % of control

O=[N+]([O-])c1ccc(O/N=C(\CN2CCCC2)c2ccc(Cl)cc2)c([N+](=O)[O-])c1
inactive: endpoint: mean survival time, dose: 100.0 mg/kg/injection, schedule: Q01DX001 (ip), vehicle: Klucel (hydroxypropylcellulose) (HPC) 90 % of control | endpoint: mean survival time, dose: 200.0 mg/kg/injection, schedule: Q01DX001 (ip), vehicle: Klucel (hydroxypropylcellulose) (HPC) 87 % of control | endpoint: mean survival time, dose: 400.0 mg/kg/injection, schedule: Q01DX001 (ip), vehicle: Klucel (hydroxypropylcellulose) (HPC) 98 % of control

C=CCOC(=O)C1c2ccccc2Cc2ccccc21
inactive: [9] 92 % of control | [10] 106 % of control | [11] 92 % of control

CC(=O)CC(C)=O.CC(=O)CC(C)=O.CC(=O)CC(C)=O.[Fe]
inactive: endpoint: mean survival time, dose: 6.25 mg/kg/injection, schedule: Q01DX009 (ip), vehicle: saline with Tween-80 93 % of control | [1] 97 % of control | [2] 102 % of control | [4] 98 % of control

CN(/N=N/c1nc[nH]c1C(N)=O)C1CCCCC1
inactive: endpoint: mean survival time, dose: 7.8 mg/kg/injection, schedule: Q01DX009 (ip), vehicle: Klucel (hydroxypropylcellulose) (HPC) 105 % of control | endpoint: mean survival time, dose: 31.2 mg/kg/injection, schedule: Q01DX009 (ip), vehicle: Klucel (hydroxypropylcellulose) (HPC) 124 % of control | endpoint: mean survival time, dose: 125.0 mg/kg/injection, schedule: Q01DX009 (ip), vehicle: Klucel (hydroxypropylcellulose) (HPC) 122 % of control | endpoint: mean survival time, dose: 250.0 mg/kg/injection, schedule: Q01DX009 (ip), vehicle: Klucel (hydroxypropylcellulose) (HPC) 70 % of control

NC(=S)NC(=S)Nc1ccc(Cl)cc1
inactive: endpoint: mean survival time, dose: 25.0 mg/kg/injection, schedule: Q04DX002 (ip), vehicle: saline with Tween-80 98 % of control | [5] 98 % of control | [6] 98 % of control

CCC(C)OC(=O)CCl (stereo not drawn)
inactive: endpoint: mean survival time, dose: 75.0 mg/kg/injection, schedule: Q01DX001 (ip), vehicle: other 97 % of control | endpoint: mean survival time, dose: 150.0 mg/kg/injection, schedule: Q01DX001 (ip), vehicle: other 96 % of control

Nc1nnnn1-c1cccc(Cl)c1
inactive: [9] 96 % of control | [10] 102 % of control | [11] 106 % of control

CN(C)Cc1ccccc1
inactive: [12] 104 % of control | [13] 110 % of control

CC(=O)OCC1OC(n2cnc3c(NC(=O)c4ccccc4)ncnc32)C(OC(C)=O)C1OC(C)=O (stereo not drawn)
inactive: endpoint: mean survival time, dose: 12.5 mg/kg/injection, schedule: Q01DX005 (ip), vehicle: distilled water + Tween-80 93 % of control | endpoint: mean survival time, dose: 25.0 mg/kg/injection, schedule: Q01DX005 (ip), vehicle: distilled water + Tween-80 100 % of control | endpoint: mean survival time, dose: 50.0 mg/kg/injection, schedule: Q01DX005 (ip), vehicle: distilled water + Tween-80 88 % of control | endpoint: mean survival time, dose: 100.0 mg/kg/injection, schedule: Q01DX005 (ip), vehicle: distilled water + Tween-80 94 % of control

O=C1c2ccccc2C(=O)c2c(O)c3c(c(O)c21)CCC(O)C3 (stereo not drawn)
inactive: endpoint: mean survival time, dose: 12.5 mg/kg/injection, schedule: Q01DX009 (ip), vehicle: other 102 % of control | endpoint: mean survival time, dose: 25.0 mg/kg/injection, schedule: Q01DX009 (ip), vehicle: other 107 % of control | endpoint: mean survival time, dose: 50.0 mg/kg/injection, schedule: Q01DX009 (ip), vehicle: other 96 % of control | endpoint: mean survival time, dose: 100.0 mg/kg/injection, schedule: Q01DX009 (ip), vehicle: other 91 % of control | endpoint: mean survival time, dose: 200.0 mg/kg/injection, schedule: Q01DX009 (ip), vehicle: other 93 % of control

C#CC12CCCCN1CCC2 (stereo not drawn)
inactive: endpoint: mean survival time, dose: 100.0 mg/kg/injection, schedule: Q01DX001 (ip), vehicle: saline 93 % of control | endpoint: mean survival time, dose: 200.0 mg/kg/injection, schedule: Q01DX001 (ip), vehicle: saline 97 % of control

CC(Br)C1(c2ccccc2)OCCO1 (stereo not drawn)
inactive: [12] 100 % of control | [9] 114 % of control | [7] 104 % of control | [13] 94 % of control | [8] 111 % of control | endpoint: mean survival time, dose: 400.0 mg/kg/injection, schedule: Q01DX001 (ip), vehicle: saline with Tween-80 102 % of control | endpoint: mean survival time, dose: 400.0 mg/kg/injection, schedule: Q04DX003 (ip), vehicle: saline with Tween-80 101 % of control
